These results are taken from patent US20090233999A1, “COMPOSITIONS AND THERAPEUTIC METHODS INVOLVING ISOFLAVONES AND ANALOGUES THEREOF” (NOVOGEN RESEARCH PTY LTD, priority 1999, published 2009).

Usually EC50 stands for the concentration needed to bring the measured effect to its halfway point. The melting point is the temperature of the solid-liquid transition.

The target in one series is T1, ER beta receptor (Homo sapiens, UniProt Q92731).
T1 construct: purchased Panvera Corporation P2614/2615
Description: Estrogen Receptor Beta Competitor Assay Core HTS Kit (Panvera). The note with it: competitive binding; kind of quantity not given; read-out: binding affinity, ER beta receptor. As to the method: The binding affinity of various compounds of the invention for both subtypes of the estrogen receptor was determined with the “Estrogen Receptor Alpha or Beta Competitor Assay Core HTS Kit” supplied by Panvera Corporation (Product No. P2614/2615).

Series [1] can be described thus: DPPH free radical scavenging. The method, then:
The antioxidant (free radical trapping) activity of test compounds was assessed using the stable free radical compound 2,2-diphenyl-1-picrylhydrazyl (DPPH). A stock solution of DPPH was prepared at a concentration of 0.1 mM in ethanol and mixed for 10 minutes prior to use. Test compounds at a concentration of 100 μM were reacted with DPPH for 20 minutes, after which time the absorbance at 517 nm was determined and the change in absorbance compared to a reagent blank (DPPH with ethanol alone). A dose response curve was produced for those compounds with free radical scavenging activity (ΔAbs>0.3) at 100 μM. The IC50 value was estimated as the concentration of test compound that caused a 0.6 change in absorbance (with 1.2 absorbance units representing total scavenging of the DPPH radical).

Another series deals with rat aortic ring. The experiment in a line: Rat aortic ring assay, contractile response to noradrenaline. The settings on record: 1 μg/ml. As to the method: The vasodilatory capacity was examined ex vivo using the rat aortic ring assay.
Male Sprague-Dawley rats (250±50 g) were euthanased with 80% CO2 and 20% O2. The thoracic aorta was excised and quickly mounted in organ-baths as described. Full concentration-contractile curves were obtained to noradrenaline (0.1 nM-[…]) with and without test compounds delivered at a concentration of 1 μg/ml. Experiments were repeated in n=5 different rings from 5 different animals. Only one compound at any one concentration was tested on any one ring from any one animal. Sigmoidal dose response curves were fitted for the data and the logEC50 and the Ema, calculated (Prism 4, GraphPad Software). The difference in these values between the presence and absence of test compound was calculated using a two-tailed paired t test. The effects of β-oestrodiol and vehicle alone were examined as a positive and negative control respectively.

Series [2] has as its system COX (PGE2 and TXB2 synthesis). Description: LPS-induced prostanoid (PGE2, TXB2) synthesis in human monocytes. It is filed as cell-based. The note with it: LPS 200 ng/mL, 18 hrs, data at 10 μM. As to the method:
Human peripheral blood monocytes were isolated from buffy coats by lymphoprep gradient separation followed by counter-current centrifugal elutriation. Test compounds were dissolved in DMSO and added to fresh monocytes to achieve concentrations of 0, 10 and 100 μM. After 30 min, lipopolysaccharide (LPS) was added to achieve a final concentration of 200 ng/mL. After incubation for 18 hrs at 37° C. in 5% CO2, supernatants were removed and PGE2 and TXB2 (the stable hydrolysis product of TXA2) production were measured by radioimmunoassay (RIA). ANOVA followed by Newman-Keuls multiple comparisons test was used to examine differences between doses and the control values.

Series [3] concerns BALB/c mice (AA-induced ear swelling). The settings on record: regardless of route of administration; cited from earlier work.

T1 sequence (Q92731 whole entry): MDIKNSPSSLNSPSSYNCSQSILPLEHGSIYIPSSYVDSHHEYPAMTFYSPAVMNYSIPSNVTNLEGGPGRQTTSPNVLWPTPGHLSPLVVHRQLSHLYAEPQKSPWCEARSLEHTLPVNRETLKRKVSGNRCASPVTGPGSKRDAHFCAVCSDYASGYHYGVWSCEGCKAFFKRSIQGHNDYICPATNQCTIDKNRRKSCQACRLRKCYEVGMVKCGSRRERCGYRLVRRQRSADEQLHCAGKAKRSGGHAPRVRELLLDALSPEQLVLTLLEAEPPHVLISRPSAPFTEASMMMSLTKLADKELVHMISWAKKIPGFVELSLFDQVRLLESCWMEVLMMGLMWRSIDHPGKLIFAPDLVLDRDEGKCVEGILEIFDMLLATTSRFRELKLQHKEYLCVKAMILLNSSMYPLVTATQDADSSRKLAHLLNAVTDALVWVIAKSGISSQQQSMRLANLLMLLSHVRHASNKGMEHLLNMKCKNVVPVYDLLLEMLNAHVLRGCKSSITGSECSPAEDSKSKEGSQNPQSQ

Take `O=C1c2cc(Cl)c(O)cc2OCC1c1ccc(O)cc1` (stereo not shown) [6-Chloro-4′,7-dihydroxyisoflavan-4-one]: the IC50 on ER beta receptor is 32.1 µM. The compound `Cc1c(O)ccc2c1OCC(c1ccc(O)cc1)=C2` [Cpd. 13, 4′,7-Dihydroxy-8-methylisoflav-3-ene] returned a melting point of 190 to 193 °C. Further, the “ability to scavenge free radicals” value in series [1] (DPPH) is listed as “limited activity”. In addition, in series [1] (DPPH 0.1 mM, 20 minutes, read-out: Free radical scavenging ability EC50), the EC50 came to 94 µM. In the series on rat aortic ring, the “contractile response (logEC50) of the aortic ring to noradrenaline” value is given as “significantly inhibited” and the “strength of the contractile response (Emax)” value is listed as “reduced”. For the compound `Cc1c(O)ccc2c1OCC(c1ccccc1)=C2` [Cpd. 17, 7-Hydroxy-8-methylisoflav-3-ene], the “COX inhibitory activity (inhibition of PGE2 and TXA2 production)” value in series [2] is listed as “significant COX inhibitory activity”. For `CC(=O)Oc1ccc(-c2coc3cc(OC(C)=O)cc(C)c3c2=O)cc1` [Example 5, 4′,7-Diacetoxy-5-methylisoflavone], the melting point was in the range of 195 to 197 °C. In turn, `CC(=O)Oc1ccc(C2COc3cc(OC(C)=O)cc(C)c3C2=O)cc1` (stereo not shown) [Example 6, 4′,7-Diacetoxy-5-methylisoflavan-4-one] came in with a melting point of 143 to 145 °C. As for `CC(=O)Oc1ccccc1C(=O)O` [aspirin], in series [3], the AA-induced oedema result is listed as “did not influence”. `CC(C)Cc1ccc(C(C)C(=O)O)cc1` (stereo not shown) [ibuprofen]: in series [3], the AA-induced oedema result is given as “did not influence”.

Regarding `COc1ccc2c(c1)c(CC(=O)O)c(C)n2C(=O)c1ccc(Cl)cc1` [indomethacin], in series [3], the AA-induced oedema entry is “does inhibit”. `CN1C(C(=O)Nc2ccccn2)=C(O)c2ccccc2S1(=O)=O` [piroxicam]: the AA-induced oedema entry in series [3] is given as “did not influence”.
